Source: ChEMBL document CHEMBL5604062, “ASAP - ZIKV NS2B-NS3 protease fluorescence dose response” (2024)
“And” between values parts separate entries of the source, which are not always exact repeats. Equal entries are not always repeated.

Biological target: Nonstructural protein 3 (Zika virus, UniProt A0A024AXB9)
Experiment: Functional biochemical assay to identify treatments for viral infectious disease that targets Zika NS2B-NS3 protease. Utilizing a direct enzyme activity measurement method, reading the fluorescence intensity is used to characterize the relative potency of inhibitors as IC50.
Parameters: species or system PRVABC59

Nonstructural protein 3, sequence (A0A024AXB9 whole entry): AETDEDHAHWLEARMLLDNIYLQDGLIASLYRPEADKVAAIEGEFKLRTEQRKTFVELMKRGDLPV

Row | Compound | IC50
1 | CC(C)NC(=O)[C@H](Nc1ccc2c(c1)CNC2)c1cc(Cl)cc2[nH]c(-c3ccccc3)nc12 | 42 nM and 19 nM and 54 nM and 33 nM and 16 nM and 69 nM
2 | Fc1cc(CNc2ccc3c(n2)CNC3)c2cn[nH]c2c1 | > 25000 nM
3 | Cc1c(C(=O)Nc2cc(-c3cccnc3)ccn2)cnn1C1CC1 | > 25000 nM
4 | CNC(=O)[C@H](Nc1ccc2c(c1)CNC2)c1cc(Cl)cc2[nH]c(-c3ccccc3)nc12 | 29 nM and 13 nM
5 | O=C(Nc1ccc2c(c1)CN[C@H]2C[C@H](O)CO)c1cc(F)cc2[nH]ncc12 | 77 nM and 69 nM
6 | CC(C)n1cc(C(=O)Nc2cc(-c3cccnc3)ccn2)c2ccccc21 | > 25000 nM
7 | O=C(Nc1cc([C@H]2CCOC2)ccn1)c1cc(F)cc2[nH]ccc12 | > 25000 nM
8 | O=C(Nc1cc(-c2cccnc2)ccn1)c1cccc(C2CC2)c1 | > 25000 nM
9 | O=C(Nc1ccc2c(c1)CNC2)c1cc(Cl)cc2[nH]c(-c3cn[nH]c3)cc12 | > 25000 nM
10 | NC[C@H]1OCCc2sc(C(=O)Nc3cc(-c4cccnc4)ccn3)cc21 | > 25000 nM
11 | O=C1OCc2ccc(NC(=O)c3cc(F)cc4[nH]ncc34)cc21 | > 25000 nM
12 | O=C(Nc1cc([C@H]2CCOC2)ccn1)c1cc(F)cc2[nH]ncc12 | > 25000 nM
13 | Nc1n[nH]c2cc(C(=O)Nc3ccc4c(c3)CNC4)ccc12 | > 25000 nM
14 | O=C(Nc1cc(-c2cccnc2)ccn1)c1cnn2c1CCC2 | > 25000 nM
15 | CCCn1cc2c(C(=O)Nc3ccc4c(c3)CNC4)cc(Cl)cc2n1 | 67 nM and 36 nM
16 | O=C(NCCC1CC1)[C@H](Nc1ccc2c(c1)CNC2)c1cc(Cl)cc(C2CC2)c1 | 74 nM and 49 nM
17 | O=C(Nc1cc([C@H]2CCOC2)ccn1)c1ccc2scnc2c1 | > 25000 nM
18 | Cc1c(CN)c(C(=O)Nc2cc(-c3cccnc3)ccn2)nn1C | > 25000 nM
19 | Cc1c(C(=O)Nc2cc(-c3cccnc3)ccn2)cc(-c2ccccc2)n1C | > 25000 nM
20 | Cc1cc(C(=O)Nc2cc(-c3cccnc3)ccn2)c(C)n1C | > 25000 nM
21 | O=C(Nc1cc(-c2cccnc2)ccn1)c1nnc(C2CC2)s1 | > 25000 nM
22 | O=C(Nc1ccc2c(c1)C(=O)OC2)c1ccc2c(c1)CNC2 | > 25000 nM

Row | Compound | IC50
23 | CCCCNC(=O)[C@H](Nc1ccc2c(c1)CNC2)c1cc(Cl)cc(C2CC2)c1 | 57 nM and 30 nM
24 | O=C(Nc1cc(-c2cccnc2)ccn1)c1cn([C@H]2CCCNC2)nn1 | > 25000 nM
25 | O=C(Nc1ccc2c(c1)CS(=O)(=O)C2)c1cc(Cl)cc2[nH]ncc12 | > 25000 nM
26 | Cc1c(C(=O)Nc2cc(SC3COC3)ccn2)cc(C2CC2)n1C | > 25000 nM
27 | O=S(=O)(Nc1ccc2c(c1)CNC2)c1cccc2[nH]ncc12 | > 25000 nM
28 | O=C(Nc1ccc2c(c1)CNC2)c1cc(F)cc(-c2cccnc2)c1 | 90 nM and 87 nM
29 | O=C(NCC(F)F)[C@H](Nc1ccc2c(c1)CNC2)c1cc(Br)cc2[nH]ccc12 | 77 nM and 44 nM
30 | O=C1Cc2c(cccc2C(=O)Nc2cc([C@H]3CCOC3)ccn2)N1 | > 25000 nM
31 | O=C(Nc1cc(Br)c2c(c1)CNC2)c1cc(F)cc2[nH]ncc12 | 27 nM and 15 nM
32 | O=C(Nc1cc(-c2cccnc2)ccn1)c1ccc(C2CC2)cc1 | > 25000 nM
33 | O=C(Nc1ccc2c(c1)CNC2)c1cc(F)cc(-c2c[nH]c(=O)c(F)c2)c1 | 73 nM and 43 nM
34 | COc1cc(C(=O)Nc2ccc3c(c2)CNC3)cc2cnn(C)c12 | > 25000 nM
35 | Cc1oc(C2CC2)nc1C(=O)Nc1cc(-c2cccnc2)ccn1 | > 25000 nM
36 | Cc1c(C(=O)Nc2cccc(-c3cccnc3)c2)cc(C2CC2)n1C | > 25000 nM
37 | O=C(Nc1cc([C@H]2CCOC2)ccn1)c1cc(Cl)cc2[nH]ncc12 | > 25000 nM
38 | O=C(Nc1cc2c(cc1C1CC1)CNC2)c1cc(F)cc2[nH]ncc12 | 92 nM and 46 nM
39 | C#C[C@H](Nc1cc([C@H]2CCOC2)ccn1)c1cc(C2CC2)n(C)n1 | > 25000 nM
40 | CC(C)NC(=O)[C@H](Nc1ccc2c(c1)CN(CC(F)F)C2)c1cc(Cl)cc2[nH]ncc12 | > 25000 nM
41 | Cc1c(C(=O)Nc2cc(-c3cccnc3)ccn2)cc(C(C)(C)C)n1C | > 25000 nM
42 | Cc1c(C(=O)Nc2ccnc(O[C@H]3CCOC3)c2)cc(C2CC2)n1C | > 25000 nM
43 | O=C(NCC1CCCCC1)[C@H]1CCCN1C(=O)Nc1ccc2c(c1)CNC2 | > 25000 nM
44 | Cn1ncc2c(C(=O)Nc3ccc4c(c3)CNC4)cc(Cl)cc21 | 47 nM and 27 nM

Row | Compound | IC50
45 | O=C(Nc1cc(-c2cccnc2)ccn1)c1cc2n(c1)CCC2 | > 25000 nM
46 | COCCNC(=O)[C@H](Nc1cccc([C@H]2CCOC2)c1)c1cc(F)cc2[nH]ccc12 | > 25000 nM
47 | O=C(Nc1cc([C@H]2CCOC2)ccn1)c1cc(Br)cc2[nH]ccc12 | > 25000 nM
48 | Cc1cc(-c2cc(F)cc(C(=O)Nc3ccc4c(c3)CNC4)c2)[nH]n1 | 90 nM and 55 nM
49 | O=C(Nc1cc([C@H]2CCOC2)ccn1)c1cc(F)c2[nH]ccc2c1 | > 25000 nM
50 | CSCCNC(=O)[C@H](Nc1ccc2c(c1)CNC2)c1cc(Cl)cc(C2CC2)c1 | 62 nM and 49 nM
51 | COc1ccc([C@H]2C[C@H](C)CN2C(=O)Nc2ccc3c(c2)CNC3)cc1 | > 25000 nM
52 | Cc1c(C(=O)Nc2cc(-c3cccnc3)ccn2)cc(CC(C)(C)C)n1C | > 25000 nM
53 | CC(C)(C)c1noc2nc(C(=O)Nc3ccc4c(c3)CNC4)ccc12 | > 25000 nM
54 | O=C(Nc1ccc2c(c1)CNC2)c1cc(F)cc2nn(-c3ccccn3)nc12 | 111 nM and 130 nM
55 | O=C(Nc1cc(-c2cccnc2)ccn1)c1c[nH]c2ncccc12 | > 25000 nM
56 | COCCCNC(=O)[C@H](Nc1ccc2c(c1)CNC2)c1cc(Cl)cc(C2CC2)c1 | 88 nM and 71 nM
57 | O=C(Nc1cc(-c2cccnc2)ccn1)c1cc(C2CC2)[nH]n1 | > 25000 nM
58 | O=C(Nc1cc(-c2cccnc2)ccn1)c1cc2n(n1)CCS2(=O)=O | > 25000 nM
59 | O=C1OCc2ccc(NC(=O)c3cc(F)cc4c3CCNC4)cc21 | > 25000 nM
60 | Cc1c(C(=O)Nc2cccc(-c3ccccc3)c2)cc(C2CC2)n1C | > 25000 nM
61 | Cc1c(C(=O)Nc2cc(-c3cccnc3)ccn2)cc(C2CCC2)n1C | > 25000 nM
62 | O=C(Nc1cc(-c2cccnc2)ccn1)c1cc2n(n1)CC(F)(F)C2 | > 25000 nM
63 | O=C(Nc1cc(-c2cccnc2)ccn1)c1cc2n(n1)CC1(CC1)C2 | > 25000 nM
64 | CC(C)(C)OC(=O)N1Cc2ccc(NC(=O)c3ccc4c(Br)csc4c3)cc2C1 | > 25000 nM
65 | Cc1c(C(=O)Nc2cc(-c3ccccc3)ccn2)cc(C2CC2)n1C | > 25000 nM
66 | Cc1cc(C(=O)Nc2cc(-c3cccnc3)ccn2)nn1CCN | > 25000 nM

Other lines, results leading:

Row | IC50 | Compound
67 | > 25000 nM | C=CC[C@H](Nc1cc([C@H]2CCOC2)ccn1)c1cc(C2CC2)n(C)n1
68 | 152 nM | Cc1ncc(-c2cc(F)cc(C(=O)Nc3ccc4c(c3)CNC4)c2)o1
69 | > 25000 nM | O=C(Nc1cc(-c2cccnc2)ccn1)c1cc2n(n1)CCO2
70 | 219 nM | CO[C@H]1C[C@H](n2cc3c(C(=O)Nc4ccc5c(c4)CNC5)cc(Cl)cc3n2)C1
71 | > 25000 nM | Cc1c(C(=O)Nc2cccc([C@H]3CCOC3)c2)cc(C2CC2)n1C
72 | > 25000 nM | O=C(Nc1cc(-c2cccnc2)ccn1)c1csc(C[C@H]2CCNC2)n1
73 | 1190 nM | O=C(Nc1ccc2c(c1)CNC2)c1cc(F)cc(-c2ccnc3c2CCO3)c1
74 | > 25000 nM | COc1ccc(OC)c([C@H]2CCCN2C(=O)Nc2ccc3c(c2)CNC3)c1
75 | > 25000 nM | O=C(Nc1cc(-c2cccnc2)ccn1)c1cc2n(n1)CCC2
76 | 3990 nM | CNC(=O)[C@H](Nc1cc(Cl)cc2[nH]ncc12)c1ccc2c(c1)CNC2
77 | > 25000 nM | Cc1c(C(=O)Nc2cc(-c3cccnc3)ccn2)cc(C2CCCC2)n1C
78 | > 25000 nM | C=CC[C@H]1NCc2cc(N[C@H](C(=O)NC(C)C)c3cccc4[nH]ncc34)ccc21
79 | > 25000 nM | O=C(Nc1cc(-c2cccnc2)ccn1)c1csc(C[C@H]2CCCNC2)n1
80 | 3420 nM | CNC(=O)[C@H](Nc1ccc2c(c1)CNC2)c1cccc2[nH]c(C(F)(F)F)nc12
81 | 917 nM | COc1cc(C(=O)Nc2ccc3c(c2)CNC3)cc2ccoc12
82 | 210 nM | O=C(Nc1ccc2c(c1)CNC2)c1cc(Cl)cc2[nH]c(COc3ccccn3)nc12
83 | 146 nM | CN(C)c1nc(-c2cc(F)cc(C(=O)Nc3ccc4c(c3)CNC4)c2)cs1
84 | 3830 nM | CC(C)NC(=O)[C@H](Nc1ccc2c(c1)CN(C)C2(C)C)c1cc(Cl)cc2[nH]ncc12
85 | 1890 nM | O=C(Nc1ccc2c(c1)CN[C@H]2c1ccccc1)c1cc(F)cc2[nH]ncc12
86 | 960 nM | O=C1CCc2c(cccc2C(=O)Nc2ccc3c(c2)CNC3)N1
87 | 113 nM | O=C(Nc1ccc2c(c1)CNC2)c1cccc2c1[C@]1(CCNC1)C(=O)N2

Row | IC50 | Compound
88 | 395 nM | O=C(Nc1ccc2c(c1)CNC2)c1cc(Cl)cc2[nH]c(-c3cnccc3O)nc12
89 | 364 nM | CO[C@H](C)Cn1cc2c(C(=O)Nc3ccc4c(c3)CNC4)cc(Cl)cc2n1
90 | 10900 nM | CC(C)NC(=O)[C@H](Nc1ccc2c(c1)CNC2)c1cccc2cn[nH]c12
91 | 165 nM | O=C(Nc1ccc2c(c1)CNC2)c1cc(F)cc(/C=C/c2ccccc2)c1
92 | 291 nM | O=C(NCC(F)F)[C@H](Nc1ccc2c(c1)CNC2)c1cc(Cl)cc2[nH]ncc12
93 | 256 nM | CNC(=O)[C@H](Nc1ccc2c(c1)CNC2)c1cc(Cl)cc2c1OCC2
94 | 116 nM | O=C(Nc1ccc2c(c1)CN[C@H]2CCO)c1cc(F)cc2[nH]ncc12
95 | 1030 nM | CC(C)NC(=O)[C@H](Nc1ccc2c(c1)CNC2)c1cc(F)cc2[nH]ccc12
96 | 156 nM | C=CC[C@H]1NCc2cc(NC(=O)c3cc(F)cc4c3CC(=O)N4)ccc21
97 | 116 nM | Cc1cnccc1-c1cc(NC(=O)c2cc(F)cc3[nH]ncc23)cc2c1CNC2
98 | 13900 nM | O=C(Nc1ccc2c(c1)CNC2)c1ccc2ccncc2c1
99 | 176 nM | O=C(Nc1ccc2c(c1)CNC2)c1cc(Cl)cc2nn(C3CCC3)cc12
100 | 159 nM | Cn1cc2c(C(=O)Nc3ccc4c(c3)CNC4)cc(Cl)cc2n1
101 | 369 nM | CS(=O)(=O)N1CC[C@]2(C1)C(=O)Nc1cccc(C(=O)Nc3ccc4c(c3)CNC4)c12
102 | 126 nM | CSCCCNC(=O)[C@H](Nc1ccc2c(c1)CNC2)c1cc(Cl)cc(C2CC2)c1
103 | 1070 nM | O=C(Nc1ccc2c(c1)CNC2)c1cc(F)cc(-c2ccnn2CC2CC2)c1
104 | 2190 nM | O=C(Nc1ccc2c(c1)CNC2)c1ccc2c(Br)csc2c1
105 | 359 nM | C=C[C@H]1NCc2cc(NC(=O)c3cc(F)cc4[nH]ncc34)ccc21
106 | 215 nM | O=C(Nc1ccc2c(c1)CNC2)c1cc(F)cc(-c2ccncc2)c1
107 | 5070 nM | Nc1nc2c(Br)cc(C(=O)Nc3ccc4c(c3)CNC4)cc2s1
